{"source": "patent US8088806B2", "about": "(Achillion Pharmaceuticals, Inc., priority 2005, dated 2012)", "data": [{"tested_on": "HCV replicon", "experiment": "Replicon based assay of HCV replication inhibition (NPT ELISA)", "type": "cell-based, Hepatitis C virus", "conditions": "Hepatitis C virus, replicon based assay of HCV replication inhibition; Table II; read-out: Activity", "outline": "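NPT (neomycin phosphotransferase) content, proportional to replicon replication, quantified by capture ELISA on day four. Before that, replicon-bearing Huh-7 cells in G418-free screening medium were exposed three days at 37° C to compound, typically six doses from 10 to 0.03 micromolar, with equal DMSO across wells.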", "units": {"EC50": "nM"}, "values": [{"smiles": "CCCCCOc1ccc(Nc2nc(CN3CCCC(C)C3)cs2)cc1F", "note": "(stereo not drawn) [compound 296, N-(3-fluoro-4-(pentyloxy)phenyl)-4-((3-methylpiperidin-1-yl)methyl)thiazol-2-amine]", "EC50": "1000 to 10000"}, {"smiles": "CCCCCOc1ccc(Nc2nc(CN3C(C)CCCC3C)cs2)cc1F", "note": "(stereo not drawn) [compound 297, 4-((2,6-dimethylpiperidin-1-yl)methyl)-N-(3-fluoro-4-(pentyloxy)phenyl)thiazol-2-amine]", "EC50": "1000 to 10000"}, {"smiles": "CCCCCOc1ccc(Nc2nc(-c3csc(-c4cccnc4)n3)cs2)cc1C(F)(F)F", "note": "[compound 298, N-(4-(pentyloxy)-3-(trifluoromethyl)phenyl)-4-(2-(pyridin-3-yl)thiazol-4-yl)thiazol-2-amine]", "EC50": "< 1000"}, {"smiles": "COc1ccc(C2CCCCC2)cc1Nc1nc(-c2cccnc2)cs1", "note": "[compound 299, N-(5-cyclohexyl-2-methoxyphenyl)-4-(pyridin-3-yl)thiazol-2-amine]", "EC50": "1000 to 10000"}, {"smiles": "COc1ccc(Oc2ccccc2)cc1Nc1nc(-c2cccnc2)cs1", "note": "[compound 300, N-(2-methoxy-5-phenoxyphenyl)-4-(pyridin-3-yl)thiazol-2-amine]", "EC50": "1000 to 10000"}, {"smiles": "CCCCCOc1ccc(Nc2nc(-c3ccc(C(=O)NC4CC4)nc3)cs2)cc1C(F)(F)F", "note": "[compound 301, N-cyclopropyl-5-(2-(4-(pentyloxy)-3-(trifluoromethyl)phenylamino)thiazolo-4-yl)picolinamide]", "EC50": "< 1000"}, {"smiles": "CCCCCCCCOc1ccc(Nc2nc(-c3ccc(C(=O)O)cc3)cs2)cc1", "note": "[compound 303, 4-(2-(4-(octyloxy)phenylamino)thia-zol-4-yl)benzoic acid]", "EC50": "1000 to 10000"}, {"smiles": "CCCCCOc1ccc(Nc2nc(CN3CCC(C(C)(C)N)C3)cs2)cc1C(F)(F)F", "note": "(stereo not drawn) [compound 304, 4-((3-(2-aminopropan-2-yl)pyrrolidin-1-yl)methyl)-N-(4-(pentyloxy)-3-(trifluoromethyl)phenyl)thia-zol-2-amine]", "EC50": "1000 to 10000"}, {"smiles": "CCCCCOc1ccc(Nc2nc(CN3CCC(C(C)(C)N)C3)cs2)cc1F", "note": "(stereo not drawn) [compound 305, 4-((3-(2-aminopropan-2-yl)pyrrolidin-1-yl)methyl)-N-(3-fluoro-4-(pentyloxy)phenyl)thiazol-2-amine]", "EC50": "1000 to 10000"}, {"smiles": "CCCCCCCCOc1ccc(Nc2nc(-c3csc(N)n3)cs2)cc1", "note": "[compound 306, 4-(2-aminothiazol-4-yl)-N-(4-(octyloxy)phenyl)thiazol-2-amine]", "EC50": "< 1000"}, {"smiles": "CCCCCCCCOc1ccc(Nc2nc(-c3cn4cccnc4n3)cs2)cc1", "note": "[compound 307, 4-(imidazo[1,2-a]pyrimidin-2-yl)-N-(4-(octyloxy)phenyl)thiazol-2-amine]", "EC50": "< 1000"}, {"smiles": "CCCCCCCCOc1ccc(Nc2nc(CN3CCN(C(=O)OC(C)(C)C)CC3)cs2)cc1", "note": "[compound 308, tert-butyl 4-((2-(4-(octyloxy)phenylamino)thia-zol-4-yl)methyl)piperazine-1-carboxylate]", "EC50": "1000 to 10000"}, {"smiles": "CCCCCCCCOc1ccc(Nc2nc(CN3CCC(N(C)C(=O)OC(C)(C)C)C3)cs2)cc1", "note": "(stereo not drawn) [compound 309, tert-butyl methyl(1-((2-(4-(octyloxy)phenylamino)thia-zol-4-yl)methyl)pyrrolidin-3-yl)carbamate]", "EC50": "1000 to 10000"}, {"smiles": "CCCCCCCCOc1ccc(Nc2nc(-c3ccc(OC)cc3)cs2)cc1", "note": "[compound 310, 4-(4-methoxyphenyl)-N-(4-(octyloxy)phenyl)thiazol-2-amine]", "EC50": "< 1000"}, {"smiles": "CCCCCCCCOc1ccc(Nc2nc(-c3ccc(OCC(=O)O)cc3)c(C)s2)cc1", "note": "[compound 311]", "EC50": "< 1000"}, {"smiles": "CCCCCCCCOc1ccc(Nc2nc(-c3ccc(F)c(F)c3)cs2)cc1", "note": "[compound 312, 4-(3,4-difluorophenyl)-N-(4-(octyloxy)phenyl)thiazol-2-amine]", "EC50": "< 1000"}, {"smiles": "CCCCCCCCOc1ccc(Nc2nc(CN3CCN(Cc4ccccn4)CC3)cs2)cc1", "note": "[compound 313]", "EC50": "1000 to 10000"}, {"smiles": "CCCCCCCCOc1ccc(Nc2nc(CN3CCN(C4CCCCCC4)CC3)cs2)cc1", "note": "[compound 314, 4-((4-cycloheptylpiperazin-1-yl)methyl)-N-(4-(octyloxy)phenyl)thiazol-2-amine]", "EC50": "< 1000"}, {"smiles": "CCCCCCCCOc1ccc(Nc2nc(CN3CCC(C(N)=O)CC3)cs2)cc1", "note": "[compound 315, 1-((2-(4-(octyloxy)phenylamino)thia-zol-4-yl)methyl)piperidine-4-carboxammide]", "EC50": "1000 to 10000"}, {"smiles": "CCCCCCCCOc1ccc(Nc2nc(CN3CCOCC3)cs2)cc1", "note": "[compound 316, 4-(morpholinomethyl)-N-(4-(octyloxy)phenyl)thiazol-2-amine]", "EC50": "1000 to 10000"}, {"smiles": "CCCCCCCCOc1ccc(Nc2nc(CN3CCC(N(C)C)C3)cs2)cc1", "note": "(stereo not drawn) [compound 317, 4-((3-(dimethylamino)pyrrolidin-1-yl)methyl)-N-(4-(octyloxy)phenyl)thiazol-2-amine]", "EC50": "< 1000"}, {"smiles": "CCCCCCCCOc1ccc(Nc2nc(CN3CCC(O)C3)cs2)cc1", "note": "(stereo not drawn) [compound 318, 1-((2-(4-(octyloxy)phenylamino)thia-zol-4-yl)methyl)pyrrolidin-3-ol]", "EC50": "< 1000"}, {"smiles": "CCCCCCCCOc1ccc(Nc2nc(CN3CCC(C(=O)OCC)CC3)cs2)cc1", "note": "[compound 319, ethyl 1-((2-(4-(octyloxy)phenylamino)thia-zol-4-yl)methyl)piperidine-4-carboxylate]", "EC50": "1000 to 10000"}, {"smiles": "CCCCCCCCOc1ccc(Nc2nc(CN3C[C@H](O)CC3C(=O)OC)cs2)cc1", "note": "(stereo partly drawn) [compound 320, (4R)-methyl 4-hydroxy-1-((2-(4-(octyloxy)pheenylamino)thia-zol-4-yl)methyl)pyrrolidine-2-carboxylate]", "EC50": "< 1000"}, {"smiles": "CCCCCCCCOc1ccc(Nc2nc(CN3CCC(O)CC3)cs2)cc1", "note": "[compound 321, 1-((2-(4-(octyloxy)phenylamino)thia-zol-4-yl)methyl)piperidin-4-ol]", "EC50": "1000 to 10000"}, {"smiles": "CCCCCCCCOc1ccc(Nc2nc(CN3CCC(CO)CC3)cs2)cc1", "note": "[compound 322, (1-((2-(4-(octyloxy)phenylamino)thia-zol-4-yl)methyl)piperidin-4-yl)methanol]", "EC50": "1000 to 10000"}, {"smiles": "CCCCCCCCOc1ccc(Nc2nc(CN3CCCC(C(=O)O)C3)cs2)cc1", "note": "(stereo not drawn) [compound 323, 1-((2-(4-(octyloxy)phenylamino)thia-zol-4-yl)methyl)piperidine-3-carboxylic acid]", "EC50": "1000 to 10000"}, {"smiles": "CCCCCCCCOc1ccc(Nc2nc(CN3CCC(C)CC3)cs2)cc1", "note": "[compound 324, 4-((4-methylpiperidin-1-yl)methyl)-N-(4-(octyloxy)phenyl)thiazol-2-amine]", "EC50": "1000 to 10000"}, {"smiles": "CCCCCCCCOc1ccc(Nc2nc(CN3CCCC(C)C3)cs2)cc1", "note": "(stereo not drawn) [compound 325, 4-((3-methylpiperidin-1-yl)methyl)-N-(4-(octyloxy)phenyl)thiazol-2-amine]", "EC50": "1000 to 10000"}, {"smiles": "CCCCCCCCOc1ccc(Nc2nc(CN3C(C)CCCC3C)cs2)cc1", "note": "(stereo not drawn) [compound 326, 4-((2,6-dimethylpiperidin-1-yl)methyl)-N-(4-(octyloxy)phenyl)thiazol-2-amine]", "EC50": "1000 to 10000"}, {"smiles": "CCCCCCCCOc1ccc(Nc2nc(-c3ccccc3)cs2)cc1", "note": "[compound 327, N-(4-(octyloxy)phenyl)-4-phenylthiazol-2-amine]", "EC50": "< 1000"}, {"smiles": "CCCCCCCCOc1ccc(Nc2nc(-c3ccc(F)cc3)cs2)cc1", "note": "[compound 328, 4-(4-fluorophenyl)-N-(4-(octyloxy)phenyl)thiazol-2-amine]", "EC50": "< 1000"}, {"smiles": "CCCCCCCCOc1ccc(Nc2nc(-c3ccc(Cl)c(Cl)c3)cs2)cc1", "note": "[compound 329, 4-(3,4-ddichlorophenyl)-N-(4-(octyloxy)phenyl)thiazol-2-amine]", "EC50": "1000 to 10000"}, {"smiles": "CCCCCCCCOc1ccc(Nc2nc(-c3ccc(F)cc3F)cs2)cc1", "note": "[compound 330, 4-(2,4-difluorophenyl)-N-(4-(octyloxy)phenyl)thiazol-2-amine]", "EC50": "1000 to 10000"}, {"smiles": "CCCCCCCCOc1ccc(Nc2nc(C3=NC(=O)NC3)cs2)cc1", "note": "[compound 331, 4-(2-(4-(octyloxy)phenylamino)thia-zol-4-yl)-1H-imidazol-2(5H)-one]", "EC50": "1000 to 10000"}, {"smiles": "CCCCCCCCOc1ccc(Nc2nc(-c3csc(-c4ccccc4)n3)cs2)cc1", "note": "[compound 332, N-(4-(octyloxy)phenyl)-4-(2-phenylthiazol-4-yl)thiazol-2-amine]", "EC50": "1000 to 10000"}, {"smiles": "COc1ccc(-c2nc(Nc3cccc(C(F)(F)F)c3)sc2-c2ccc(OC)cc2)cc1", "note": "[compound 333, 4,5-bis(4-methoxyphenyl)-N-(3-(trifluoromethyl)phenyl)thia-zol-2-amine]", "EC50": "1000 to 10000"}, {"smiles": "CCOC(=O)c1ccc(Nc2nc(-c3ccc(OC)cc3)c(-c3ccc(OC)cc3)s2)cc1", "note": "[compound 334, ethyl 4-(4,5-bis(4-methoxyphenyl)thiazol-2-ylamino)benzoate]", "EC50": "1000 to 10000"}, {"smiles": "COc1ccc(-c2nc(NC(=O)c3ccccc3)sc2-c2ccc(OC)cc2)cc1", "note": "[compound 335, N-(4,5-bis(4-methoxyphenyl)thiazol-2-yl)benzamide]", "EC50": "1000 to 10000"}, {"smiles": "COc1ccc(CNc2nc(-c3ccc(OC)cc3)c(-c3ccc(OC)cc3)s2)cc1", "note": "[compound 336, N-(4-methoxybenzyl)-4,5-bis(4-methoxypheenyl)thiazol-2-amine]", "EC50": "> 10000"}, {"smiles": "CCOC(=O)c1ccc(Nc2nc(-c3ccc(OCC(=O)O)cc3)c(C)s2)cc1", "note": "[compound 337, 2-(4-(2-(4-(ethoxycarbonyl)phenylamino)-5-methylthiazol-4-yl)phenoxy)acetic acid]", "EC50": "> 10000"}, {"smiles": "Cc1sc(Nc2cccc(C(F)(F)F)c2)nc1-c1ccc(OCC(=O)O)cc1", "note": "[compound 338, 2-(4-(5-methyl-2-(3-(trifluoromthyl)phenylamino)thiazol-4-yl)phenoxy)acetic acid]", "EC50": "> 10000"}, {"smiles": "Cc1sc(NC(=O)c2ccccc2)nc1-c1ccc(OCC(=O)O)cc1", "note": "[compound 340, 2-(4-(2-benzamido-5-methylthiazol-4-yl)phenoxy)acetic acid]", "EC50": "> 10000"}, {"smiles": "COc1ccc(CNc2nc(-c3ccc(OCC(=O)O)cc3)c(C)s2)cc1", "note": "[compound 341, 2-(4-(2-(4-methoxybenzylamino)-5-methylthiazol-4-yl)phenoxy)acetic acid]", "EC50": "> 10000"}, {"smiles": "CCOC(=O)c1ccc(Nc2nc(-c3ccc(CC(=O)O)cc3)c(C)s2)cc1", "note": "[compound 342, 2-(4-(2-(4-(ethoxycarbonyl)phenylamino)-5-methylthiazol-4-yl)phenyl)acetic acid]", "EC50": "> 10000"}]}]}
